For orientation: melting point means the temperature of the solid-liquid transition. The molecule `O=[N+]([O-])c1ccc(C(O)c2ccccn2)cc1` (configuration not stated) gave a melting point of 114 to 115 °C.
As for `Fc1ccc(-c2cn(-c3ccncc3)c3ccccc23)cc1`, the figure is 115 to 118 °C; as for `NC(=NO)c1ncn2c1[C@@H]1CCCN1C(=O)c1c(Cl)cccc1-2`, 249 to 250 °C; as for `CC(C)(C)c1ccc(-c2cc(Nc3ccc4[nH]ccc4c3)nnc2-c2ccccc2)cc1`, 138 to 140 °C.
As for `CC(N)=CC(=O)C1=C(C)CCCC1(C)C`, the figure is 124 to 125 °C.
As for `O=Cc1ccc(OCc2ccccc2)c(OC2CCCC2)c1`, the figure is 55 to 56 °C.
In turn, `CC1CCC(C(C)C)C(OC(=O)N2CC3CC(C2)CN(C(=O)C2(O)NCCC2Oc2ccc(C#N)cc2)C3)C1` (single isomer, unassigned; (-)) came in with a melting point of 111 to 112 °C.
As for `COc1ccc(C2CCC(=O)N2c2ccc(OC)cc2)cc1` (configuration not stated), the figure is 91.5 to 92.5 °C; as for `CC(C)(CC1CCCC1)NC(=O)CN1C(=O)c2ccccc2C1=O`, 159 to 160 °C; as for `CCCCCCCCCC=CC(=O)C1C(=O)C=C(C)OC1=O` (configuration not stated), 112 to 113 °C.
Then `O=C(OCc1cc(-c2ccccc2)c(=O)n2c1-c1sccc1CN2)N1CCOCC1`, with 207 to 210 °C.
Then `CCc1nc2c(o1)C(=O)C(C)=C(NCCN(C)C)C2=O`, with 135 °C; and `COc1cc(Br)cc(/C=C/C(=O)/C=C/c2cc(Br)cc(OC)c2)c1`, with 181 to 183 °C.
In the case of `COc1cc2c(cc1S(=O)(=O)c1ccc(OCc3ccc(Cl)cc3)cc1)CCN(C)CC2`, the melting point is 120 to 122 °C.
As for `COc1cnc(CO)cc1OC1CCCC1`, the figure is 93 to 94.5 °C.
Regarding `CCOC(=O)c1[nH]c2cc(Cl)cc(Cl)c2c1NCC(=O)c1cccc(F)c1`, the melting point lay in the range of 234 to 235 °C.
As for `Oc1cccc(CCCCn2ccnc2)c1`, the figure is 133 to 134 °C.
Then `O=C1CCN(Cc2cccnc2)C(=O)C1`, with 55 to 60 °C.
As for `COc1cc(Nc2nccc(-c3cccc(OCCO)c3)n2)cc(OC)c1OC`, the figure is 70 °C; as for `NC(=O)c1c(Cl)cc(Cl)c(OCC(=O)O)c1Cl`, 261 to 262 °C.
With `CC1COc2cc(Oc3ccc(NC(=O)N(C)C)cn3)ccc21` (configuration not stated), the melting point lay within 153 to 154 °C.
As for `CC(F)(F)c1cccc(C[C@@H](NC(=O)c2cccc3c2C=CCCC3)[C@@H](O)c2ccc(F)cc2)c1` (racemic), the figure is 170 to 171 °C.
As for `CC(C)(C)N1CC(=O)Nc2ccc(I)cc2C1=O`, the figure is 230 to 232 °C; as for `OCc1ccccc1NCc1c(O)ccc2c1CCCO2`, 151 to 153 °C.
As for `O=C(c1cccc2cc[nH]c12)N1CCN(c2cccc(C(F)(F)F)c2)CC1`, the figure is 147 to 151 °C; as for `CC(C)C(C)(C(N)=O)N1C(=O)c2cccnc2C1=O` (configuration not stated), 176 to 178 °C.
Regarding `CNC(=O)NC1OCC(OC(C)=O)C(OC(C)=O)C1OC(C)=O` (configuration not stated), the melting point is 170 to 172 °C.
In turn, `CC(C)(C)C1=C(c2cc3cc(O)ccc3s2)OCC1(C)C` gave a melting point of 196 °C.
`CSc1ccc(CCCC(=O)O)cc1` showed a melting point of 53 to 55 °C.
As for `COc1ccc(-c2ccc(C=NO)cc2)cc1OC1CCCC1`, the figure is 153 °C; as for `O=C(O)c1ccc(Oc2c(-c3ccc(O)cc3)c(C(F)(F)F)cc3ccccc23)cc1`, 244 to 245 °C.
As for `Cc1ccc(-c2c3ccccc3nn2Cc2ccccc2)cc1`, the figure is 111 °C; as for `Cc1cc(C(N)=O)ncc1C(c1c(F)ccc(F)c1F)S(=O)(=O)CC1CC1` (configuration not stated), 222 to 223 °C; as for `c1ccc(-n2c(Cc3ccccn3)nc3ccccc32)cc1`, 106 to 108 °C.
Then `CCCOc1ncc(NC(=O)CC(=O)O)cc1-c1nc2c(CCC)nn(C)c2c(=O)[nH]1`, with 261 to 262 °C; and `COC(=O)c1sccc1NC(=O)c1ccccc1SSc1ccccc1C(=O)Nc1ccsc1C(=O)OC`, with 250 to 252 °C; and `CCCc1nc2ccnn2c(Cl)c1Cc1ccc(-c2ccccc2C#N)cc1`, with 137 °C.
Regarding `O=c1nc(-c2ccc(C(F)(F)F)cc2)sc2ccccc12`, the melting point lay in the range of 122 to 123 °C.
Then `[N-]=[N+]=NS(=O)(=O)c1cc(C(=O)O)c(O)c(S(=O)(=O)N=[N+]=[N-])c1`, with 184 to 186 °C; and `COc1cc(CC(=O)NCCOc2ccc(C(=O)O)cc2[N+](=O)[O-])ccc1N(C(N)=O)c1ccccc1C`, with 112 to 115 °C.
With `CCC(Oc1cc(C)cc(C)c1)C(=O)NCc1ccccc1` (configuration not stated), the melting point fell in the range of 93 to 94 °C.
Then `O=C1N(C(c2ccccc2)c2ccccc2)c2ccccc2C12COc1ccc(-c3cccnc3)cc12` (configuration not stated), with 204 to 207 °C.
As for `CC(C)(C)c1cc(-c2cncn2CCCO)cc(C(C)(C)C)c1O`, the figure is 166 to 167 °C.
As for `C=C(Nc1nc(-c2ccccc2)c(-c2nc3ccccc3c(=O)n2-c2ccccc2Cl)s1)c1ccco1`, the figure is greater than 275 °C.
With `O=C1c2cccc3cc(OCCO)cc(c23)C(=O)N1O`, the melting point lay within 242 to 244 °C.
Then `CC(=O)OC(C)(C)C(=O)Nc1c(C(=O)c2ccccc2)[nH]c2cc(Cl)ccc12`, with 162 to 165 °C; and `Cc1c(Cc2ccc(C(C)C)cc2)c2c(c(C)c1NC(=O)CC(C)(C)C)C(O)C(C)(C)O2` (configuration not stated), with 244 to 245 °C; and `Cc1nc(N2CCCC(Cc3cc(F)ccc3F)C2=O)sc1C(=O)NCc1ccccc1` (configuration not stated), with 144 to 145 °C.
As for `O=C(C#CCN1C(=O)c2ccccc2C1=O)Nc1nnc(SCc2ccccc2)s1`, the figure is 128 to 131 °C; as for `CS(=O)(=O)c1ccc(-c2cc(=O)n(CC3CCC3)nc2-c2ccc(F)cc2)cc1`, 74 to 76 °C; as for `O=C(Cc1cccc2ccccc12)Nc1cc([C@H]2C[C@@H](Oc3nc4ccccc4o3)C2)[nH]n1`, 142 °C.
Then `O=C(O)Cc1ccc(OCCc2ccccc2)c(OCc2ccccc2)c1`, with 116 to 119 °C; and `CCOC(=O)C1=C(C)NN=C(CC)C1c1ccc(Cl)cc1` (configuration not stated), with 111 °C.
For the molecule `O=C(Nc1ccn(CC(O)CF)c(=O)n1)c1ccccc1` (racemic), the melting point was 205 °C.
As for `CCCCCCC1C(=O)NC2(C(O)C3C=CCCC3)C(=O)OC12C` (configuration not stated), the figure is 157 °C.
Then `CN1CCN2CCCOC2(c2ccccc2)c2cc(Cl)ccc21` (configuration not stated), with 142 to 144 °C; and `CN1CCCCc2cc(Nc3ncc(Cl)c(N[C@@H]4CCCC[C@H]4NS(C)(=O)=O)n3)ccc21`, with 102 to 104 °C; and `CN1CC=C(c2c[nH]c3ccc(NC(=O)c4ccccc4)cc23)CC1`, with greater than 250 °C.
As for `CS(=O)(=O)c1ccc(C[C@@H](NC(=O)OCc2ccccc2)[C@H](O)C(N)=O)cc1`, the figure is 186 to 191 °C; as for `CC(C)(C)OC(=O)N1CC2CCCCC(C1)C2C=O` (configuration not stated), 55 to 60 °C; as for `CCCCNC(=O)N(c1ccccc1)c1ccccc1`, 92 °C.
For the molecule `CCN(CC)CCNc1nc2ccccc2n(-c2ccc(Cl)cc2)c1=O`, the melting point fell in the range of 96 to 98 °C.
Then `CCNc1c(C#N)cnn1-c1ccc(Cl)c(Cl)c1Cl`, with 145 °C; and `Nc1nc2ccccc2c2c1nc(CNC(=O)C1CC1)n2CC1(O)CCCCC1`, with greater than 250 °C.
As for `Clc1c(OCC2CO2)cccc1N1CCCCC1` (configuration not stated), the figure is 55 to 57 °C; as for `O=C1CCCCN1Cc1ccc(CCn2cnc3cc(-c4ccc(F)cc4)sc3c2=O)cc1`, 216 to 217 °C.
Then `O=C(O)C=CC(=O)Nc1ccc(C(=O)O)cc1`, with 217 to 219 °C; and `COC(=O)c1ccccc1S(=O)(=O)NC(=O)c1ccc2c(C)cc(C)nn12`, with 200 to 202 °C.
`CCCCc1nc(C(C)(C)O)c(C(=O)OCc2oc(=O)oc2C)n1Cc1ccc(-c2ccccc2C(=O)O)cc1` had a melting point greater than 70 °C.
Then `Cc1ccc(S(=O)(=O)c2ccccc2S(=O)(=O)N=CN(C)C)cc1`, with 178 °C; and `CCCCC(=O)OCc1cnc(C)c(O)c1`, with 114 to 115 °C; and `CC(=O)c1cccc(-c2nc3sccn3c2-c2ccnc(N[C@@H]3CCCN(S(=O)(=O)c4ccc(Cl)cc4)C3)n2)c1`, with 124 to 127 °C.
As to `Cc1ccc(C(=S)Oc2nc[nH]c2C(N)=O)cc1`, the melting point turned out to be 219 °C.
Turning to `COc1cn(-c2ccc(OCc3ccccc3)cc2F)nc(C(C)=O)c1=O`, the melting point lay in the range of 101 to 103 °C.
Consider `O=C(Nc1cscc1S(=O)(=O)c1ccc(Cl)cc1)N[C@@H](Cc1ccc(NC(=O)c2c(Cl)cccc2Cl)cc1)C(=O)O`, for which the melting point was determined as 202 °C.
Then `Nc1nc(NCCN2CCC(NC3(Cc4ccc(F)cc4)Nc4ccccc4N3)CC2)ccc1[N+](=O)[O-]`, with 206 °C; and `COc1cc(C=C2C(=O)CCc3ccccc32)c([N+](=O)[O-])cc1OC`, with 58 to 60 °C.
Then `CNS(=O)(=O)c1cscc1CO`, with 118 to 119 °C.
Then `S=C(NCCc1cccc(Cl)c1)Nc1nc2ccccc2[nH]1`, with 171 to 177 °C; and `CC(=O)c1cccc(-c2ccc(COc3ccc(C(=O)O)c(O)c3)cc2)c1`, with 215 to 220 °C.
Regarding `CCCCc1nn(-c2cc(NC(=O)CC)ccc2Cl)c(C#N)c1Cc1ccc(-c2ccccc2S(=O)(=O)NC(=O)OC(C)(C)C)cc1F`, the melting point is greater than 95 °C.
As for `CCC(C)N1CCc2cnc3ccnn3c21` (configuration not stated), the figure is 199 °C; as for `CC(C)(C)OC(=O)CN1C(=O)C(N)C1CCc1ccco1` (configuration not stated), 85 to 87 °C; as for `CC1CC2CCC=C3C=C(Cl)NCC1=C32` (configuration not stated), 279 to 281 °C.
For the molecule `COCCCn1nnnc1-c1cc(-c2cccc(C(=O)OC)c2)c(OCc2ccccc2)cc1OCc1ccccc1`, the melting point lay within 105 to 108 °C.
As for `COC(=O)c1cccc(S(=O)(=O)N(C)C)c1C`, the figure is 40 to 43 °C.
As for `CC(C)C[C@@H](COCC(N)=O)NC(=O)OCc1ccccc1`, the figure is 78 to 79 °C.

The values are drawn from a melting point compilation (Tetko et al.; mined from patent text by program, amines drawn as free bases though some values may be those of a salt).
